# In patent US10752615B2, “Spirocyclic containing compounds and pharmaceutical uses thereof” (GB005, Inc., priority 2016, dated 2020):
# Key:
# TXK = TXK (Homo sapiens (Human), UniProt P42681); assay: Kinase inhibition assay (Nanosyn, microfluidic detection), TXK; type: biochemical; conditions: 1 mM ATP, 3 hours at 25° C.
# Description: The in vitro kinase assays were performed at Nanosyn (Santa Clara, Calif.) utilizing microfluidic detection technology. The test compounds were serially pre-diluted in DMSO and added, by the acoustic dispensing (Labcyte® 550), directly to 384 well assay plates into 10 uL of a buffer with enzyme (ITK, TXK, BTK or TEC) comprising: 100 mM HEPES, pH7.5, 5 mM MgCl2, 0.1% bovine serum albumin, 1 mM DTT, 0.01% Triton X-100 and the enzyme. Final DMSO concentration was maintained at 1% in all samples, including the controls. The reactions were initiated by addition of ATP (1 mM final concentration) and the fluorescently labeled peptide substrate to a final concentration of 1 uM, and incubated for 3 hours at 25° C. Following incubation, the reactions were quenched by addition of 40 μL of termination buffer (100 mM HEPES, pH7.5, 0.01% Triton X-100, 50 mM EDTA). Terminated plates were analyzed using Caliper LabChip® 3000 microfluidic electrophoresis instrument (Caliper Life Sciences/Perkin Elmer). […] As substrate and product are separated by electrophoresis, two peaks of fluorescence are observed. Change in the relative fluorescence intensity of the substrate and product peaks was the parameter measured, reflecting enzyme activity. In the presence of inhibitor, the ratio between product and substrate is altered: signal of the product decreases, while the signal of the substrate increases. Activity in each test sample was determined as the product to sum ratio (PSR): P/(S+P), where P is the peak height of the product and S is the peak height of the […]. For each compound, enzyme activity was measured at 12 concentrations spaced by 3× dilution intervals. Negative control samples (0%-inhibition in the absence of inhibitor, DMSO only) and positive control samples (100%-inhibition, in the absence of enzyme or in the presence of control inhibitor) were assembled in replicates of four and were used to calculate %-inhibition values in the presence of compounds. Percent inhibition (Pinh) was determined using the following equation: Pinh=(PSR0%−PSRinh)/(PSR0%−PSR100%)*100, where PSRinh is the product sum ratio in the presence of inhibitor, PSR0% is the product sum ratio in the absence of inhibitor and PSR100% is the product sum ratio in 100%-inhibition control samples. To determine IC50 values, the inhibition curves (Pinh versus inhibitor concentration) were fitted by 4 parameter sigmoid dose-response model using XLfit software (IDBS).
# BTK = BTK (Homo sapiens (Human), UniProt Q06187); assay: Kinase inhibition assay (Nanosyn, microfluidic detection), BTK; type: biochemical; conditions: 1 mM ATP, 3 hours at 25° C.
# Sequence of BTK (Q06187 whole entry): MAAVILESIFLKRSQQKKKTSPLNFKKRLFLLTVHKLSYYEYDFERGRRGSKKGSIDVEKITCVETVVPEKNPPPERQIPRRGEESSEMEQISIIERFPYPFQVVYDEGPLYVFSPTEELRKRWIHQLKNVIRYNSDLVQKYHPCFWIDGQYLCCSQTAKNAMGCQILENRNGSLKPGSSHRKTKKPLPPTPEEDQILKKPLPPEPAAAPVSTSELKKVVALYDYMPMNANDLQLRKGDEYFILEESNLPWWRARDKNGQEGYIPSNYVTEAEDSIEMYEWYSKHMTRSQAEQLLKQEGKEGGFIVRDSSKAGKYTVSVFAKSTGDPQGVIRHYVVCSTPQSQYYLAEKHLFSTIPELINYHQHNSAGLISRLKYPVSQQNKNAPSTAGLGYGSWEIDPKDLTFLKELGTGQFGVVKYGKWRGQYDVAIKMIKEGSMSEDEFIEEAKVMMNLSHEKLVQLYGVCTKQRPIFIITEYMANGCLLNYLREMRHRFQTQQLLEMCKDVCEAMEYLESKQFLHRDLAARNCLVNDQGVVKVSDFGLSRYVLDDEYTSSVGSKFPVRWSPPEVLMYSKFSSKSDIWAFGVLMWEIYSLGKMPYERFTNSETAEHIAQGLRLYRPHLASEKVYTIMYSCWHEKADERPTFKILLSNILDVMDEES
# Description: The in vitro kinase assays were performed at Nanosyn (Santa Clara, Calif.) utilizing microfluidic detection technology. The test compounds were serially pre-diluted in DMSO and added, by the acoustic dispensing (Labcyte® 550), directly to 384 well assay plates into 10 uL of a buffer with enzyme (ITK, TXK, BTK or TEC) comprising: 100 mM HEPES, pH7.5, 5 mM MgCl2, 0.1% bovine serum albumin, 1 mM DTT, 0.01% Triton X-100 and the enzyme. Final DMSO concentration was maintained at 1% in all samples, including the controls. The reactions were initiated by addition of ATP (1 mM final concentration) and the fluorescently labeled peptide substrate to a final concentration of 1 uM, and incubated for 3 hours at 25° C. Following incubation, the reactions were quenched by addition of 40 μL of termination buffer (100 mM HEPES, pH7.5, 0.01% Triton X-100, 50 mM EDTA). Terminated plates were analyzed using Caliper LabChip® 3000 microfluidic electrophoresis instrument (Caliper Life Sciences/Perkin Elmer). The enzymatic modification of the peptide substrate (phosphorylation) results in a change of net charge enabling electrophoretic separation of product from substrate. As substrate and product are separated by electrophoresis, two peaks of fluorescence are observed. Change in the relative fluorescence intensity of the substrate and product peaks was the parameter measured, reflecting enzyme activity. In the presence of inhibitor, the ratio between product and substrate is altered: signal of the product decreases, while the signal of the substrate increases. Activity in each test sample was determined as the product to sum ratio (PSR): P/(S+P), where P is the peak height of the product and S is the peak height of the […]. For each compound, enzyme activity was measured at 12 concentrations spaced by 3× dilution intervals. Negative control samples (0%-inhibition in the absence of inhibitor, DMSO only) and positive control samples (100%-inhibition, in the absence of enzyme or in the presence of control inhibitor) were assembled in replicates of four and were used to calculate %-inhibition values in the presence of compounds. Percent inhibition (Pinh) was determined using the following equation: Pinh=(PSR0%−PSRinh)/(PSR0%−PSR100%)*100, where PSRinh is the product sum ratio in the presence of inhibitor, PSR0% is the product sum ratio in the absence of inhibitor and PSR100% is the product sum ratio in 100%-inhibition control samples. To determine IC50 values, the inhibition curves (Pinh versus inhibitor concentration) were fitted by 4 parameter sigmoid dose-response model using XLfit software (IDBS).
# Sequence of TXK (P42681 whole entry): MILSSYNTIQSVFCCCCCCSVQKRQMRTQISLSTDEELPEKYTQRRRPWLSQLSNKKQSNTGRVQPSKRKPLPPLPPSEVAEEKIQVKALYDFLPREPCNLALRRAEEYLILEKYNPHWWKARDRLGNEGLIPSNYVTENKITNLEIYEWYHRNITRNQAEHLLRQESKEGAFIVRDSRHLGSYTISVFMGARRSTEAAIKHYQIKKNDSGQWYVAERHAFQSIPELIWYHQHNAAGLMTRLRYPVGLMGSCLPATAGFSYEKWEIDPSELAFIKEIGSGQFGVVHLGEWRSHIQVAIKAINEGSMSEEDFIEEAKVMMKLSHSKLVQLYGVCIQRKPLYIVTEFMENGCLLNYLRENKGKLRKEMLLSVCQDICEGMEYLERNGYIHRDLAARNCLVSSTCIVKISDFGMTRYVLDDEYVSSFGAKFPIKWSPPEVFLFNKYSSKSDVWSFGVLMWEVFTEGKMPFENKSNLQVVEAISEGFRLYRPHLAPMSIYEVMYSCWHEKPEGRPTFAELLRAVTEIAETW
IC50 (TXK) [nM],IC50 (BTK) [nM],Structure (SMILES)
52.6,378,C=CC(=O)N1CC2(CC(n3c(NC(=O)c4ccc(C(F)F)s4)nc4cc(CN[C@@H](C)C(C)(C)C)ccc43)C2)C1 [Compound 1]
,1.01,C=CC(=O)N1CC[C@]2(C1)C[C@H](n1c(NC(=O)c3ccc(C(F)F)s3)nc3cc(CN[C@@H](C)C(C)(C)C)ccc31)C2 [Compound 2]
,26.8,C=CC(=O)N1CC[C@]2(C1)C[C@@H](n1c(NC(=O)c3ccc(C(F)F)s3)nc3cc(CN[C@@H](C)C(C)(C)C)ccc31)C2 [Compound 3]
,0.64,C=CC(=O)N1CC[C@]2(C1)C[C@H](n1c(NC(=O)c3ccc(-c4cnco4)s3)nc3cc(CN[C@@H](C)C(C)(C)C)ccc31)C2 [Compound 4]
2.86,4.28,C=CC(=O)N1CC[C@]2(C1)C[C@H](n1c(NC(=O)c3cnco3)nc3cc(CN[C@@H](C)C(C)(C)C)ccc31)C2 [Compound 6]
0.6,2.2,C=CC(=O)N1CC[C@]2(C1)C[C@H](n1c(NC(=O)c3cnc(C(C)C)s3)nc3cc(CN[C@@H](C)C(C)(C)C)ccc31)C2 [Compound 7]
0.67,2.36,C=CC(=O)N1CC[C@]2(C1)C[C@H](n1c(NC(=O)c3cnc(C)s3)nc3cc(CN[C@@H](C)C(C)(C)C)ccc31)C2 [Compound 8]
0.2,,C=CC(=O)N1CCC[C@]2(C1)C[C@H](n1c(NC(=O)c3ccc(C(F)F)s3)nc3cc(CN[C@@H](C)C(C)(C)C)ccc31)C2 [Compound 9]
0.84,,C=CC(=O)N1CCC[C@]2(C1)C[C@@H](n1c(NC(=O)c3ccc(C(F)F)s3)nc3cc(CN[C@@H](C)C(C)(C)C)ccc31)C2 [Compound 10]
,1.8,C=CC(=O)N1CC[C@]2(C1)C[C@H](n1c(NC(=O)c3cncs3)nc3cc(CN[C@@H](C)C(C)(C)C)ccc31)C2 [Compound 13]
11,,C=CC(=O)N1CC[C@]2(C1)C[C@@H](n1c(NC(=O)c3ccc(C(F)F)s3)nc3ccccc31)C2 [Compound 17]
,1.34,C=CC(=O)N1CC[C@]2(C1)C[C@H](n1c(NC(=O)c3ccc(C#N)cc3)nc3cc(CN[C@@H](C)C(C)(C)C)ccc31)C2 [Compound 19]
,0.7,C=CC(=O)N1CC[C@]2(C1)C[C@H](n1c(NC(=O)c3ccns3)nc3cc(CN[C@@H](C)C(C)(C)C)ccc31)C2 [Compound 25]
,2.59,C=CC(=O)N1CC[C@]2(C1)C[C@H](n1c(NC(=O)c3ccc(C(F)F)s3)nc3cc(CN4CCOCC4)ccc31)C2 [Compound 27]
,2.11,C=CC(=O)N1CC[C@]2(C1)C[C@H](n1c(NC(=O)c3ccc(C(C)(F)F)s3)nc3ccccc31)C2 [Compound 30]
,0.95,C=CC(=O)N1CC[C@]2(C1)C[C@H](n1c(NC(=O)c3ccc(C(F)F)s3)nc3cc(CNCC(C)(C)CO)ccc31)C2 [Compound 37]
,0.53,C=CC(=O)N1CC[C@]2(C1)C[C@H](n1c(NC(=O)c3ccc(-c4cnco4)s3)nc3cc(CN[C@H]4CC[C@H](O)CC4)ccc31)C2 [Compound 42]
,0.66,C=CC(=O)N1CC[C@]2(C1)C[C@H](n1c(NC(=O)c3ccc(-c4cnco4)s3)nc3cc(CNCC(C)(C)CO)ccc31)C2 [Compound 44]
,1.09,C=CC(=O)N1CC[C@]2(C1)C[C@H](n1c(NC(=O)c3ccc(-c4cnco4)s3)nc3cc(F)ccc31)C2 [Compound 57]
,41.9,C=CC(=O)N1CC[C@]2(C1)C[C@@H](n1c(NC(=O)c3ccc(-c4cnco4)s3)nc3cc(F)ccc31)C2 [Compound 68]
7.71,,C=CC(=O)N1CC[C@]2(C1)C[C@@H](n1c(NC(=O)c3ccc(-c4cnco4)s3)nc3ccc(Cl)cc31)C2 [Compound 69]

IC50 (TXK) [nM],IC50 (BTK) [nM],Structure (SMILES)
17.9,,C=CC(=O)N1CC[C@]2(C1)C[C@@H](n1c(NC(=O)c3ccc(-c4cnco4)s3)nc3cc(Cl)ccc31)C2 [Compound 71]
0.26,,C=CC(=O)N1CC[C@]2(C1)C[C@H](n1c(NC(=O)c3ccc(-c4cnco4)s3)nc3ccc(CO)cc31)C2 [Compound 73]
3.15,,C=CC(=O)N1CC[C@]2(C1)C[C@H](n1c(NC(=O)c3ccc(C(=O)Nc4cccnc4)s3)nc3ccccc31)C2 [Compound 85]
5.72,,C=CC(=O)N1CC[C@]2(C1)C[C@H](n1c(NC(=O)c3ccc(-c4cnco4)s3)nc3c(OC)cccc31)C2 [Compound 87]
17.6,,C=CC(=O)N1CC[C@]2(C1)C[C@H](n1c(NC(=O)c3ccc(C(=O)N4CCOCC4)s3)nc3ccccc31)C2 [Compound 91]
64.3,,C=CC(=O)N1CC[C@]2(C1)C[C@H](n1c(NC(=O)c3ccc(-c4nc(C)no4)s3)nc3ccccc31)C2 [Compound 92]
9.88,,C=CC(=O)N1CC[C@]2(C1)C[C@H](n1c(NC(=O)c3ccc(-c4noc(C)n4)s3)nc3ccccc31)C2 [Compound 93]
,0.33,C=CC(=O)N1CC[C@]2(C1)C[C@H](n1c(NC(=O)c3ccc(-c4cc[nH]c(=O)c4)s3)nc3ccccc31)C2 [Compound 97]
0.31,,C=CC(=O)N1CC[C@]2(C1)C[C@H](n1c(NC(=O)c3ccc(C(=O)OC)s3)nc3ccccc31)C2 [Compound 98]
5.63,,C=CC(=O)N1CC[C@]2(C1)C[C@H](n1c(NC(=O)c3ccc(C(=O)N4CCCC4)s3)nc3ccccc31)C2 [Compound 102]
30.1,,C=CC(=O)N1CC[C@]2(C1)C[C@H](n1c(NC(=O)c3ccc(NC(=O)C4CCCC4)s3)nc3ccccc31)C2 [Compound 106]
64.1,,C=CC(=O)N1CC[C@]2(C1)C[C@H](n1c(NC(=O)c3ccc(NC(=O)c4cccnc4)s3)nc3ccccc31)C2 [Compound 111]
7.31,,C=CC(=O)N1CC[C@]2(C1)C[C@H](n1c(NC(=O)c3ccc(-c4ccc(C#N)cc4)s3)nc3ccccc31)C2 [Compound 118]
5.48,,C=CC(=O)N1CC[C@]2(C1)C[C@H](n1c(NC(=O)c3ccc(N4CCCC4=O)s3)nc3ccccc31)C2 [Compound 121]
1.22,,C=CC(=O)N1CC[C@]2(C1)C[C@H](n1c(NC(=O)c3ccc(-c4cccc(C#N)c4)s3)nc3ccccc31)C2 [Compound 122]
,0.63,C=CC(=O)N1CC[C@]2(C1)C[C@H](n1c(NC(=O)c3ccc(-c4cncc(N)c4)s3)nc3ccccc31)C2 [Compound 128]
,1.06,C=CC(=O)N1CC[C@]2(C1)C[C@H](n1c(NC(=O)c3ccc(C(F)(F)CO)s3)nc3ccccc31)C2 [Compound 130]
,0.46,C=CC(=O)N1CC[C@]2(C1)C[C@H](n1c(NC(=O)c3ccc(-c4ccnc(NC)c4)s3)nc3ccccc31)C2 [Compound 131]
,0.41,C=CC(=O)N1CC[C@]2(C1)C[C@H](n1c(NC(=O)c3ccc(-c4ccnc(N)n4)s3)nc3ccccc31)C2 [Compound 138]
0.69,,C=CC(=O)N1CC[C@]2(C1)C[C@H](n1c(NC(=O)c3ccc(-c4cncnc4)s3)nc3cc(CO)ccc31)C2 [Compound 148]
,0.68,C=CC(=O)N1CC[C@]2(C1)C[C@H](n1c(NC(=O)c3ccc(-c4ccnc(C)n4)s3)nc3ccccc31)C2 [Compound 149]
